This is an account of results in patent US5556859A, “N-(4-pyrimidinyl)amide pesticides” (DowElanco, priority 1994, dated 1996).

In experiment [1] the test system is tobacco budworm (Heliothis virescens). Put plainly: Activity against tobacco budworm (TBW). It counts as in vivo. The following applies: 144 h, read-out: percent mortality, TBW. The protocol:
In conducting evaluations of insecticidal activity, each test compound was formulated as a 400 ppm solution, and this solution was then diluted with water to give lesser concentrations. The 400 ppm solution was prepared by combining 19.2 mL of 0.05% solution of Tween 20 (polyoxyethylene (20) sorbitan monolaurate) in water with a solution of 8 mg of the compound in 0.8 mL of acetone/EtOH (9/1).
Activity against tobacco budworm (Heliothis virescens) was evaluated as follows. A general purpose lepidoptera artificial diet was diluted to half strength with a 5% non nutritive agar. 8 mL of this diet material was dispensed into each one ounce diet cup. One hour prior to treatment 18 to 20 eggs were dispensed onto the diet surface. The cups were then sprayed with formulated material through a flat-fan nozzle. The test was run using concentrations of 400 ppm and 50 ppm. Treated cups were air dried prior to sealing with plastic caps. The cups were held for 6 days at room temperature. Activity was then rated based on the total number of live and dead larvae, and on the size of live larvae.

Experiment [2] deals with aster leafhopper (Macrosteles fascifrons). The experiment in a line: whole plant or invertebrate. The following applies: 24 h, read-out: percent mortality, ALH.
The subject of experiment [3] is beet armyworm (Spodoptera exiqua). The experiment in a line: whole plant or invertebrate. The settings on record: 144 h, read-out: percent mortality, BAW.
Experiment [4] relates to cotton aphid (Aphis gossypii). Put plainly: whole plant or invertebrate. The following applies: 72 h, read-out: percent mortality, CA.
The subject of experiment [5] is peanut root knot nematode (Meloidogyne arenaria). The experiment in a line: whole plant or invertebrate. The following applies: in Arachis hypogaea, read-out: percent mortality, RKN.
The subject of experiment [6] is Southern corn rootworm (Diabrotica undecimpuctata howardi Barber). The experiment in a line: whole plant or invertebrate. The following applies: in Zea mays, soil, read-out: percent mortality, SCRW.
The subject of experiment [7] is two spotted spider mite (Tetranychus urticae). The experiment in a line: whole plant or invertebrate. The following applies: 72 h, read-out: percent mortality, TSSM.
Experiment [8] relates to German cockroach (Blattella germanicus). The experiment in a line: whole plant or invertebrate. The settings on record: 240 h, read-out: percent mortality, GECR.

Each structure is given as a SMILES string.

One may read the mortality as the percentage killed.

Turning to `Cc1nccc(NC(=O)Cc2ccc(Oc3ccc(Cl)cc3)cc2)n1` [Compound 1, 4-(4-chlorophenoxy)phenyl-N-(2-methyl-4-pyrimidinyl)acetamide], the mortality at 400 ppm in experiment [1] was determined as 100%; in experiment [2] it was 0%; in experiment [3], 100%; in experiment [4] it was 100%; in experiment [5], 100%; in experiment [7], 100%. For the same compound, the mortality at 400 ppm in experiment [8] came out at 100%. The mortality at 24 µg/g in experiment [6] came out at 100%.
Turning to `O=C(Cc1ccc(OCC(F)(F)F)cc1)Nc1ccnc(-c2ccccc2)n1` [Compound 5, 4-(2,2,2-trifluroethoxy)phenyl-N-(2-phenyl-4-pyrimidinyl)acetamide], the mortality at 400 ppm in experiment [1] was 0%; in experiment [2], 0%; in experiment [3] it was 30%; in experiment [4], 0%; in experiment [5] it was 0%; in experiment [7], 0%. Also, in experiment [8], the mortality at 400 ppm was determined as 0%. Also, in experiment [6], the mortality at 24 µg/g came out at 0%.
With `CSc1nccc(NC(=O)Cc2ccc(Oc3ccc(F)cc3)cc2)n1` [Compound 6, 4-(4-fluorophenoxy)phenyl-N-(2-methylthio-4-pyrimidinyl)acetamide], the mortality at 400 ppm in experiment [1] came out at 90%; in experiment [2] it was 100%; in experiment [3] it was 100%; in experiment [4], 100%; in experiment [5] it was 0%; in experiment [7], 0%. Further, the mortality at 400 ppm in experiment [8] was 60%. For the same compound, the mortality at 24 µg/g in experiment [6] was determined as 100%.
With `O=C(Cc1ccc(Oc2ccc(F)cc2)cc1)Nc1ccnc(-c2ccccc2)n1` [Compound 7, 4-(4-fluorophenoxy)phenyl-N-(2-phenyl-4-pyrimidinyl)acetamide], the mortality at 400 ppm worked out at 60% in experiment [1]; 0% in experiment [2]; 60% in experiment [3]; 100% in experiment [4]; 0% in experiment [5]; 0% in experiment [7]. In addition, in experiment [8], the mortality at 400 ppm was found to be 60%. For the same compound, the mortality at 24 µg/g in experiment [6] is 0%.
As to `Cc1nccc(NC(=O)Cc2cccc(Oc3ccccc3)c2)n1` [Compound 8, 3-phenoxyphenyl-N-(2-methyl-4-pyrimidinyl)acetamide], the mortality at 400 ppm in experiment [1] is 0%; in experiment [2], 100%; in experiment [3], 0%; in experiment [4] it was 100%; in experiment [5] it was 0%; in experiment [7] it was 0%. The mortality at 400 ppm in experiment [8] was 40%. Moreover, the mortality at 24 µg/g in experiment [6] is 0%.
`CCc1nccc(NC(=O)Cc2ccc(OCC(F)(F)F)cc2)n1` [Compound 9, 4-(2,2,2-trifluroethoxy)phenyl-N-(2-ethyl-4-pyrimidinyl)acetamide]: the mortality at 400 ppm in experiment [1] worked out at 100%; in experiment [2], 100%; in experiment [3], 100%; in experiment [4] it was 100%; in experiment [5], 0%; in experiment [7], 0%. Besides, in experiment [8], the mortality at 400 ppm was determined as 0%. Further, the mortality at 24 µg/g in experiment [6] was determined as 0%.
Turning to `CCc1nccc(NC(=O)Cc2ccc(Oc3ccc(F)cc3)cc2)n1` [Compound 10, 4-(4-fluorophenoxy)phenyl-N-(2-ethyl-4-pyrimidinyl)acetamide], the mortality at 400 ppm in experiment [1] turned out to be 100%; in experiment [2], 100%; in experiment [3], 100%; in experiment [4], 100%; in experiment [5], 90%; in experiment [7] it was 100%. Also, the mortality at 400 ppm in experiment [8] was 100%. Besides, the mortality at 24 µg/g in experiment [6] amounted to 100%.
Turning to `CCc1nccc(NC(=O)Cc2ccc(Oc3ccc(C(F)(F)F)cc3)cc2)n1` [Compound 11, 4-(4-trifluoromethylphenoxy)phenyl-N-(2-ethyl-4-pyrimidinyl)acetamide], the mortality at 400 ppm in experiment [1] amounted to 100%; in experiment [2] it was 80%; in experiment [3] it was 100%; in experiment [4], 100%; in experiment [5] it was 80%; in experiment [7] it was 100%. In addition, in experiment [8], the mortality at 400 ppm was 100%. Also, in experiment [6], the mortality at 24 µg/g was 100%.
Consider `CCc1nccc(NC(=O)Cc2ccc(Oc3ccc(S(C)(=O)=O)cn3)cc2)n1` [Compound 36, 4-(5-methylsulfonyl-2-pyridinyloxy)phenyl-N-(2-ethyl-4-pyrimidinyl)acetamide], for which the mortality at 400 ppm is 100% in experiment [1]; 100% in experiment [3]; 40% in experiment [4]; 100% in experiment [5]; 0% in experiment [7]; 40% in experiment [8]. Also, the mortality at 24 µg/g in experiment [6] is 0%.
In the case of `CCc1nccc(NC(=O)Cc2ccc(Oc3ccc(Cl)cn3)cc2)n1` [Compound 37, 4-(5-chloro-2-pyridinyloxy)phenyl-N-(2-ethyl-4-pyrimidinyl)acetamide], the mortality at 400 ppm is 100% in experiment [1]; 100% in experiment [3]; 0% in experiment [4]; 0% in experiment [5]; 0% in experiment [7]; 100% in experiment [8]. Besides, the mortality at 24 µg/g in experiment [6] came to 0%.
In the case of `COCc1nccc(NC(=O)Cc2ccc(OCC(F)(F)F)cc2)n1` [Compound 38, 4-(2,2,2-trifluroethoxy)phenyl-N-(2-(methoxymethyl)-4-pyrimidinyl)acetamide], the mortality at 400 ppm in experiment [1], in experiment [3], in experiment [4], in experiment [5], in experiment [7] and in experiment [8] was 0% throughout. The mortality at 24 µg/g in experiment [6] is 0%.
On to `COCc1nccc(NC(=O)Cc2ccc(Oc3ccc(F)cc3)cc2)n1` [Compound 39, 4-(4-fluorophenoxy)phenyl-N-(2-(methoxymethyl)-4-pyrimidinyl)acetamide], for which the mortality at 400 ppm in experiment [1], in experiment [3], in experiment [4], in experiment [5], in experiment [7] and in experiment [8] was 100% throughout. The mortality at 24 µg/g in experiment [6] came to 0%.
As for `CCCCc1nccc(NC(=O)Cc2ccc(Oc3ccc(C(F)(F)F)cc3)cc2)n1` [Compound 65, 4-(4-trifluoromethylphenoxy)phenyl-N-(2-butyl-4-pyrimidinyl)acetamide], the mortality at 400 ppm in experiment [1] was 100%; in experiment [2], 0%; in experiment [3], 100%; in experiment [4], 100%; in experiment [7], 100%; in experiment [8], 100%. Besides, the mortality at 24 µg/g in experiment [6] amounted to 0%.
As to `O=C(Cc1ccc(Oc2ccc(C(F)(F)F)cc2)cc1)Nc1ccnc(C2CCC2)n1` [Compound 66, 4-(4-trifluoromethylphenoxy)phenyl-N-(2-cyclobutyl-4-pyrimidinyl)acetamide], the mortality at 400 ppm in experiment [1] stood at 100%; in experiment [2] it was 40%; in experiment [3] it was 100%; in experiment [4], 100%; in experiment [7], 100%; in experiment [8], 100%. Besides, in experiment [6], the mortality at 24 µg/g is 100%.
Turning to `Cc1nccc(NC(=O)Cc2ccc(Oc3cccc(C(F)(F)F)c3)cc2)n1` [Compound 69, 4-(3-trifluoromethylphenoxy)phenyl-N-(2-methyl-4-pyrimidinyl)acetamide], the mortality at 400 ppm was 80% in experiment [1]; 40% in experiment [2]; 80% in experiment [3]; 0% in experiment [4]; 0% in experiment [7]; 0% in experiment [8]. Besides, the mortality at 24 µg/g in experiment [6] is 0%.
For the compound `CC(C)c1nccc(NC(=O)Cc2ccc(Oc3ccc(C(F)(F)F)cc3)cc2)n1` [Compound 72, 4-(4-trifluoromethylphenoxy)phenyl-N-(2-(1-methylethyl)-4-pyrimidinyl)acetamide], the mortality at 400 ppm in experiment [1] turned out to be 100%; in experiment [3] it was 0%; in experiment [4], 100%; in experiment [5] it was 100%; in experiment [7], 100%; in experiment [8] it was 100%. For the same compound, in experiment [6], the mortality at 24 µg/g was 100%.
